Data published in patent US20240173419A1, “CDK2 DEGRADERS AND USES THEREOF” (Kymera Therapeutics, Inc., priority 2022, published 2024).

Biological target: T1, CDK2 (Homo sapiens, UniProt P24941)
T1 construct: endogenous in cells; host or cells: MKN1 cells
Experiment: CDK2 degradation in MKN1 cells (AlphaLISA)
Assay type: cell-based
Parameters: key to CDK2 degradation 14 h: Mean external-Abs DC50 (nM): A (<100 nM); B (≥100-500 nM); C (>500-1000 nM); D (>1000 nM); E (not achieved)
Conditions: for DC50: read-out: CDK2 degradation 14 h: Mean external-Abs DC50; for Dmax: MKN-1, 14 h incubation
Description: Degradation of CDK2 in MKN1 cells was measured using AlphaLISA technology (PerkinElmer ALSU-TCDK2-A10K). MKN1 cells were maintained in RPMI1640 medium containing 10% FBS+1× penn/strep. Cells were seeded in 96-well plates (Corning 3599) at a density of 2e4 cells per well in 80 μL of fresh complete growth medium. Cells were incubated overnight at 37° C., 5% CO2. Compounds were then added to the cell assay plates with a final top concentration of 10 μM in a 1:5 dilution series with a total of 11 doses (0.001 nM-10 μM). The final volume per well was 160 μL and the final DMSO concentration was 0.1%. Additionally, wells containing no cells and only complete growth medium were also maintained on the cell assay plates (‘no cell’ wells) and processed along with experimental wells. After 14 hour-incubation at 37° C., 5% CO2, the medium was removed and the cells were washed once with 100 μL of 1×PBS. Following removal of PBS, 40 μL of 1× Lysis Buffer containing 1× protease and phosphatase inhibitors (Roche 4693116001; Roche 4906837001) were added to each well. The cell assay plate was agitated on a plate shaker at 350 rpm for 10 minutes at room temperature. 10 μL of each cell lysate were transferred to a 384-well plate (PerkinElmer 6007290). 10 μL of control lysates (from PerkinElmer ALSU-TCDK2-A10K kit) were added to separate wells to generate a standard curve. Activation Buffer was prepared by diluting 25-fold in combined Reaction Buffer 1 and Reaction Buffer 2. Acceptor Beads were diluted 50-fold in combined Reaction Buffers. 5 μL of Acceptor Mix were added to each well. The plate was sealed with Topseal-Aadhesive film, covered with foil, and incubated in the dark for 1 hour at room temperature. Under subdued light, the Donor Beads were diluted 50-fold in Dilution Buffer. 5 μL of Donor Mix were added to each well under subdued light. The plate was sealed with Topseal-A adhesive film, covered with foil, and incubated in the dark for 1 hour at room temperature. Under subdued light, the plates were analyzed on an EnVision Microplate Reader (PerkinElmer Model 2009-0030). The average signal from ‘no cell’ wells was subtracted from the signal in experimental wells prior to calculating Alpha signal for test compounds and negative control (0.100 DMSO). The data were analyzed using Xlfit (v5.3. 1.3) and the dose-dependent CDK2 degradation data were fit using a four-parameter logistic model to calculate DC50.

Cc1cc(S(=O)(=O)NC(C)COC2CN(CC3CCN(c4ccc5c(c4F)n(C)c(=O)n5C4CCC(=O)NC4=O)CC3)C2)ccc1Nc1ncc(C(F)(F)F)c(C2CCC(C)(O)CC2)n1 (racemic) [I-852]
CDK2 degradation 14 h: Average Dmax % (14 h incubation): B (B (>50% -75%))
DC50 (14 h incubation): < 100 nM

Cc1cc(S(=O)(=O)NC(C)COC2CCC(CN3CCN(c4ccc5c(c4F)n(C)c(=O)n5C4CCC(=O)NC4=O)CC3)CC2)ccc1Nc1ncc(C(F)(F)F)c(C2CCC(C)(O)CC2)n1 (racemic) [I-859]
DC50 (14 h incubation): < 100 nM

[2H]C(C)(COC1CCC(CN2CCN(c3ccc4c(c3F)n(C)c(=O)n4C3CCC(=O)NC3=O)CC2)CC1)NS(=O)(=O)c1ccc(Nc2ncc(C(F)(F)F)c(C3CCC(C)(O)CC3)n2)c(C)c1 (racemic) [I-859]
CDK2 degradation 14 h: Average Dmax % (14 h incubation): A (A (>75% o))

Cc1cc(S(=O)(=O)NC2CCC(CN3CCN(c4ccc([C@@H]5CCC(=O)NC5=O)c(Cl)c4)CC3)CC2)ccc1Nc1ncc(C(F)(F)F)c(N2CCC[C@](C)(O)C2)n1 (single isomer, unassigned) [I-809]
DC50 (14 h incubation): < 100 nM
Dmax: > 75%

Cc1cc(S(=O)(=O)NC2CCC(CN3CCN(c4ccc([C@H]5CCC(=O)NC5=O)c(Cl)c4)CC3)CC2)ccc1Nc1ncc(C(F)(F)F)c(N2CCC[C@](C)(O)C2)n1 (single isomer, unassigned) [I-817]
DC50 (14 h incubation): 100 to 500 nM
Dmax: > 75%

Cc1cc(S(=O)(=O)CCCO[C@H]2CC[C@H](CN3CCC(c4ccc5c(c4)n(C)c(=O)n5C4CCC(=O)NC4=O)CC3)CC2)ccc1Nc1ncc2cc(Cl)c(=O)n(C3CCCC3)c2n1 (some centres unmarked) [I-3, 3-[5-[1-[[4-[3-[4-[(6-Chloro-8-cyclopentyl-7-oxo-pyrido[2,3-d]pyrimidin-2-yl)amino]-3-methyl-phenyl]sulfonylpropoxy]cyclohexyl]methyl]-4-piperidyl]-3-methyl-2-oxo-benzimidazol-1-yl]piperidine-2,6-dione]
DC50 (14 h incubation): < 100 nM
Dmax: > 75%

Cc1cc(S(=O)(=O)CCCO[C@H]2CC[C@H](CN3CCC(c4ccc5c(c4)n(C4CCC(=O)NC4=O)c(=O)n5C)CC3)CC2)ccc1Nc1nccc(-c2cnc(C)n2C(C)C)n1 (some centres unmarked) [I-4]
CDK2 degradation 14 h: Average Dmax % (14 h incubation): B (B (>50% -75%))
DC50 (14 h incubation): < 100 nM

Cc1cc(S(=O)(=O)CCCO[C@H]2CC[C@H](CN3CCC(c4ccc5c(c4)n(C4CCC(=O)NC4=O)c(=O)n5C)CC3)CC2)ccc1Nc1ncc2cc(C(F)F)c(=O)n(C(C)C)c2n1 (some centres unmarked) [I-6]
CDK2 degradation 14 h: Average Dmax % (14 h incubation): B (B (>50% -75%))
CDK2 degradation 14 h: Mean external-Abs DC50 (nM) (14 h incubation): E

Cc1cc(S(=O)(=O)C2CCN(CCN3CCN(c4cccc5c4n(C)c(=O)n5C4CCC(=O)NC4=O)CC3)CC2)ccc1Nc1ncc2cc(Cl)c(=O)n(C(C)C)c2n1 (centres unmarked) [I-7]
CDK2 degradation 14 h: Average Dmax % (14 h incubation): A (A (>75% o))
DC50 (14 h incubation): < 100 nM

Cc1cc(S(=O)(=O)C2CCN(CCN3CCC(c4cccc5c4n(C)c(=O)n5C4CCC(=O)NC4=O)CC3)CC2)ccc1Nc1ncc2cc(Cl)c(=O)n(C(C)C)c2n1 (centres unmarked) [I-8]
CDK2 degradation 14 h: Average Dmax % (14 h incubation): B (B (>50% -75%))
DC50 (14 h incubation): 100 to 500 nM

Cc1cc(S(=O)(=O)C2CCN(C3CCN(CC4CCN(c5cccc6c5n(C)c(=O)n6C5CCC(=O)NC5=O)CC4)CC3)CC2)ccc1Nc1ncc2cc(Cl)c(=O)n(C(C)C)c2n1 (centres unmarked) [I-10]
CDK2 degradation 14 h: Average Dmax % (14 h incubation): A (A (>75% o))
DC50 (14 h incubation): < 100 nM

Cc1cc(S(=O)(=O)C2CCN(CCC3CCN(c4cccc5c4n(C)c(=O)n5C4CCC(=O)NC4=O)CC3)CC2)ccc1Nc1ncc2cc(Cl)c(=O)n(C(C)C)c2n1 (centres unmarked) [I-11]
CDK2 degradation 14 h: Average Dmax % (14 h incubation): A (A (>75% o))
DC50 (14 h incubation): < 100 nM

Cc1cc(S(=O)(=O)C(C)CCO[C@H]2CC[C@H](CN3CCC(c4ccc5c(c4)n(C4CCC(=O)NC4=O)c(=O)n5C)CC3)CC2)ccc1Nc1ncc2cc(Cl)c(=O)n(C3CCCC3)c2n1 (some centres unmarked) [I-12]
CDK2 degradation 14 h: Average Dmax % (14 h incubation): A (A (>75% o))
DC50 (14 h incubation): < 100 nM

Cc1cc(S(=O)(=O)C2CCC(N3CCC(CN(C)c4cccc5c4n(C)c(=O)n5C4CCC(=O)NC4=O)CC3)CC2)ccc1Nc1ncc2cc(Cl)c(=O)n(C3CCCC3)c2n1 (centres unmarked) [I-33]
CDK2 degradation 14 h: Average Dmax % (14 h incubation): A (A (>75% o))
DC50 (14 h incubation): < 100 nM
